The values that follow come from ChEMBL document CHEMBL2375335, “Discovery of a novel series of non-nucleoside thumb pocket 2 HCV NS5B polymerase inhibitors” (Bioorg Med Chem Lett, 2013).

As a reminder, the IC50 is the midpoint of a concentration-inhibition curve. Usually thermodynamic solubility stands for the concentration in solution at equilibrium with solid. The half-life is how long it takes for the measured level to halve. A higher half-life goes with slow decline.

Calls of active or inactive are those of the source. The rule behind the calls is not given here.

Data set [1] can be described thus: Inhibition of HCV genotype 1b isolate BK NS5B Cdelta21 RNA dependent RNA polymerase using [3H]UTP as substrate incubated for 25 mins prior to substrate addition measured after 120 mins by scintillation proximity assay. On the set-up: species or system Hepatitis C virus (isolate BK). A general note: SPA uses beads or plates that emit light when radiolabelled molecules are held near them.

A short description of data set [2]: Solubility of the compound in buffer after 24 hrs at pH 7.2 by shake flask method. Format: physicochemical.
For data set [3], the target named is Cytochrome P450 2C9 (Homo sapiens, UniProt P11712). The experiment in a line: Inhibition of CYP2C9 (unknown origin). Type of data set: ADME.
Data set [4] deals with Cytochrome P450 2D6 (Homo sapiens, UniProt P10635). Kind of data set: Inhibition of CYP2D6 (unknown origin). Format: ADME.
Data set [5] concerns the target Cytochrome P450 2C19 (Homo sapiens, UniProt P33261). Kind of data set: Inhibition of CYP2C19 (unknown origin). Format: ADME.
Data set [6] has as its system Hepatitis C virus (isolate BK). The experiment in a line: Ratio of IC50 for HCV genotype 1b isolate BK NS5B Cdelta21 RNA dependent RNA polymerase L419M mutant to IC50 for HCV genotype 1b isolate BK wild type NS5B Cdelta21 RNA dependent RNA polymerase.
Data set [7] relates to Hepatitis C virus. Kind of data set: Antiviral activity against HCV genotype 1b infected in HuH7 cells assessed as inhibition of viral replication after 48 hrs by RT-PCR analysis. Format: functional, organism-based. The following applies: Hepacivirus hominis, Huh-7.
Data set [8] can be described thus: Half life in human liver microsomes at 10 uM. Type of data set: ADME, Microsome. (In general: Microsomes from liver hold many membrane-bound enzymes, among them those of drug oxidation.)
Data set [9] concerns the target RNA-directed RNA polymerase (Hepacivirus hominis, UniProt O39930, M423T). Kind of data set: Inhibition of HCV genotype 1b isolate BK NS5B Cdelta21 RNA dependent RNA polymerase M423T mutant using [3H]UTP as substrate incubated for 25 mins prior to substrate addition measured after 120 mins by scintillation proximity assay. On the set-up: species or system Hepatitis C virus (isolate BK).

Data set [10] can be described thus: Permeability from apical to basal side of human Caco2 cells at pH 7.4. Format: ADME, cell-based. The following applies: Caco-2, pH 7.4, read-out: permeability.
For data set [11], the target named is T1, Cytochrome P450 1A2 (Homo sapiens, UniProt P05177).
T1 sequence (P05177 whole entry): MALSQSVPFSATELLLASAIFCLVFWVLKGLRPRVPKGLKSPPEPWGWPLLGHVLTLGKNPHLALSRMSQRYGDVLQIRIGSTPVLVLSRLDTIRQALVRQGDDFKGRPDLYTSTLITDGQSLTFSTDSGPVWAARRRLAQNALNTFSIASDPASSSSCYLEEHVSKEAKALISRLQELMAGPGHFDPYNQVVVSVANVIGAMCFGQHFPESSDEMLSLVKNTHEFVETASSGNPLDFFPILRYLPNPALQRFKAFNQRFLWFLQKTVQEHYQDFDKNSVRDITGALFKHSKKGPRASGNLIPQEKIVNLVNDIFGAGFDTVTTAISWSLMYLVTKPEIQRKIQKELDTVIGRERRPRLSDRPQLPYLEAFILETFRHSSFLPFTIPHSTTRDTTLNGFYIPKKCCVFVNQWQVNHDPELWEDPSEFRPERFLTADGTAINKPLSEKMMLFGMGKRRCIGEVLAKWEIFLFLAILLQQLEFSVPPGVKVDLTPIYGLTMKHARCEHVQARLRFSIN
The experiment in a line: Inhibition of CYP1A2 (unknown origin). Type of data set: ADME.

Data set [12] addresses Cytochrome P450 3A4 (Homo sapiens, UniProt P08684). Kind of data set: Inhibition of CYP3A4 (unknown origin). Type of data set: ADME.
Data set [13] in a line: Inhibition of calf thymus RNA polymerase 2. More on the design: species or system Bos taurus.
Data set [14] is described as follows: Inhibition of HCV genotype 1b isolate BK NS5B Cdelta21 RNA dependent RNA polymerase L419M mutant using [3H]UTP as substrate incubated for 25 mins prior to substrate addition measured after 120 mins by scintillation proximity assay. More on the design: species or system Hepatitis C virus (isolate BK).
Data set [15] addresses RNA-directed RNA polymerase (Hepacivirus hominis, UniProt O39930, P495S). The experiment in a line: Inhibition of HCV genotype 1b isolate BK NS5B Cdelta21 RNA dependent RNA polymerase P495S mutant using [3H]UTP as substrate incubated for 25 mins prior to substrate addition measured after 120 mins by scintillation proximity assay. More on the design: species or system Hepatitis C virus (isolate BK).

Data set [16] addresses RNA-directed RNA polymerase (Hepacivirus hominis, UniProt O39930, M414T). The experiment in a line: Inhibition of HCV genotype 1b isolate BK NS5B Cdelta21 RNA dependent RNA polymerase M414T mutant using [3H]UTP as substrate incubated for 25 mins prior to substrate addition measured after 120 mins by scintillation proximity assay. On the set-up: species or system Hepatitis C virus (isolate BK).

Chain of Cytochrome P450 2C9 (P11712 whole entry): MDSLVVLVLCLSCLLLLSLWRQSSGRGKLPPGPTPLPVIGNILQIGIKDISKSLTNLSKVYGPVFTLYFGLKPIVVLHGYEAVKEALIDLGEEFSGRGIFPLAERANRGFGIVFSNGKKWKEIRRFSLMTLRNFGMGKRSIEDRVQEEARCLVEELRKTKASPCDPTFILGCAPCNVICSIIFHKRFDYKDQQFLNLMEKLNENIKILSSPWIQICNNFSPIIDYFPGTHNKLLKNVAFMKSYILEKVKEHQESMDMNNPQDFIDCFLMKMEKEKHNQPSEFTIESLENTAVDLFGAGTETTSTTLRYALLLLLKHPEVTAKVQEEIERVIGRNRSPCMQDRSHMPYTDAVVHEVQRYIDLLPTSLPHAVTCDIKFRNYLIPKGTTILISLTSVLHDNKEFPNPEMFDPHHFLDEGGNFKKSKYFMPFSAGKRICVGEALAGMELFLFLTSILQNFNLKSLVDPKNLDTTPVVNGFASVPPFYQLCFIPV
Chain of Cytochrome P450 2D6 (P10635 whole entry): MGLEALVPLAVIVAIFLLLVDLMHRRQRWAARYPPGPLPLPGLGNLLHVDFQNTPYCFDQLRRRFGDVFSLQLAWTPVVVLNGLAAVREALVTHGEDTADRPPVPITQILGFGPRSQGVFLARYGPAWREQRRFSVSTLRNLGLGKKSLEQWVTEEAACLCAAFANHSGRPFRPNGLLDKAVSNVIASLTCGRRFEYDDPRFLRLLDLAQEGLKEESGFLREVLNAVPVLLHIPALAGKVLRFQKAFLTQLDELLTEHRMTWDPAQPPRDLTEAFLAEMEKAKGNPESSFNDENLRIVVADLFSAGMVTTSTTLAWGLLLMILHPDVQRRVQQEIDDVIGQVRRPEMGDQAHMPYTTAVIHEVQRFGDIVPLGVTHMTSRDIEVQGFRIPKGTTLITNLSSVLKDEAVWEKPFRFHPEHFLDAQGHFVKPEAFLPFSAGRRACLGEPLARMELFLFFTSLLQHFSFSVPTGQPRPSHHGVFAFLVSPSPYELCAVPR
Chain of Cytochrome P450 3A4 (P08684 whole entry): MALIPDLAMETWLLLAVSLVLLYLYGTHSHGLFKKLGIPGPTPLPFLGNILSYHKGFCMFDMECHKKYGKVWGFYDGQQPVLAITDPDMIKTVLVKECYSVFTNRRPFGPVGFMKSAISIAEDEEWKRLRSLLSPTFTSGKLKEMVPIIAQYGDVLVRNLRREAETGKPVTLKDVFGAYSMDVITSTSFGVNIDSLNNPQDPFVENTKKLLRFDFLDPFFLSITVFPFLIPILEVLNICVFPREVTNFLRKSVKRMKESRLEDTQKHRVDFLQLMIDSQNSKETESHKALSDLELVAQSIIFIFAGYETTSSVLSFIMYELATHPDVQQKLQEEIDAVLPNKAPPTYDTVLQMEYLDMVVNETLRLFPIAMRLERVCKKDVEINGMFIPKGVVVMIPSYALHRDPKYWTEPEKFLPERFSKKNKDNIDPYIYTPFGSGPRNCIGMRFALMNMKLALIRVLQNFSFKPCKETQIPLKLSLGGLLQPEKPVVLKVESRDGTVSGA
Chain of RNA-directed RNA polymerase (Hepacivirus hominis, UniProt O39930, M423T) (O39930 entry or part of it M423T): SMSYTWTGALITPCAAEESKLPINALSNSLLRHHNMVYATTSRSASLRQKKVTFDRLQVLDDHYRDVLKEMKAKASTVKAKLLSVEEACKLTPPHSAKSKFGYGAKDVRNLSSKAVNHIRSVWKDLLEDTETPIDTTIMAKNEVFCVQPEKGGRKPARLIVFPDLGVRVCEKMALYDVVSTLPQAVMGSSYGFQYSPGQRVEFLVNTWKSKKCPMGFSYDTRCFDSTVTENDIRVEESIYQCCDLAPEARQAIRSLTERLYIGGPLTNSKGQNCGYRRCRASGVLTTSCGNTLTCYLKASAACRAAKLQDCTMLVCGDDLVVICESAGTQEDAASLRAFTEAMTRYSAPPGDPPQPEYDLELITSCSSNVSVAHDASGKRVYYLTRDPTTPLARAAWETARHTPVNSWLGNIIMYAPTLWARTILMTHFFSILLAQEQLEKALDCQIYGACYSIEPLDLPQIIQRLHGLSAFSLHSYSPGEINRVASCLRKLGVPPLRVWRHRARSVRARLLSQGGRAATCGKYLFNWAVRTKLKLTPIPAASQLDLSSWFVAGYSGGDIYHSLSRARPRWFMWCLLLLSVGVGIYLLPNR
Chain of Cytochrome P450 2C19 (P33261 whole entry): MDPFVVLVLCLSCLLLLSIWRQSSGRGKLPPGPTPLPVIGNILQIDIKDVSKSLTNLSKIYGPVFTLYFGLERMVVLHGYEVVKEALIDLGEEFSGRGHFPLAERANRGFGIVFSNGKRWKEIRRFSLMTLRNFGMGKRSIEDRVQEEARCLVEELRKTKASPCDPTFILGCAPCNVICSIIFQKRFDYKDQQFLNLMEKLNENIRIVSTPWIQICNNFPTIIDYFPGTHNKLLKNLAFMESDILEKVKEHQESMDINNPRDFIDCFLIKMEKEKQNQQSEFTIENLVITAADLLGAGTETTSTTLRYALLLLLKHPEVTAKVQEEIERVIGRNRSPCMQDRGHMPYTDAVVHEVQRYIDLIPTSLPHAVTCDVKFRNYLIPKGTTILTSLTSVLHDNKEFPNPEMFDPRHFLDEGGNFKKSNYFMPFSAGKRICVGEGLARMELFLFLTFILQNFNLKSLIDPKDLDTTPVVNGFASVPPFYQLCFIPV
Chain of RNA-directed RNA polymerase (Hepacivirus hominis, UniProt O39930, M414T) (O39930 entry or part of it M414T): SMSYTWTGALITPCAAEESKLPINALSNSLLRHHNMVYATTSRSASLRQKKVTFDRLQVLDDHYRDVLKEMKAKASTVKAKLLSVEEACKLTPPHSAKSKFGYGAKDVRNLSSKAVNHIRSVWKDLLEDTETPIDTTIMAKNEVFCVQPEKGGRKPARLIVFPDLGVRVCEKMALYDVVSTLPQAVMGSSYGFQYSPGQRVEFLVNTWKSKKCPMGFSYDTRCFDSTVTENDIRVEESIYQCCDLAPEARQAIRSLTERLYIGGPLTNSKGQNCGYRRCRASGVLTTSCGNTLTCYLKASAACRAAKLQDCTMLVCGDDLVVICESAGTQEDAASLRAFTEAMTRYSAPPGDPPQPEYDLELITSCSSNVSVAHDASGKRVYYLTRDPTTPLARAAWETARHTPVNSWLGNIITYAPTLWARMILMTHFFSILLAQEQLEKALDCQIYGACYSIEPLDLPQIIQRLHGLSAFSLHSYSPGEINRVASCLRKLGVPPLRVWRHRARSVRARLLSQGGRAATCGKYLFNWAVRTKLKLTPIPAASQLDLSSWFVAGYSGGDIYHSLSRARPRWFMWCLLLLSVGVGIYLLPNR
Chain of RNA-directed RNA polymerase (Hepacivirus hominis, UniProt O39930, P495S) (O39930 entry or part of it P495S): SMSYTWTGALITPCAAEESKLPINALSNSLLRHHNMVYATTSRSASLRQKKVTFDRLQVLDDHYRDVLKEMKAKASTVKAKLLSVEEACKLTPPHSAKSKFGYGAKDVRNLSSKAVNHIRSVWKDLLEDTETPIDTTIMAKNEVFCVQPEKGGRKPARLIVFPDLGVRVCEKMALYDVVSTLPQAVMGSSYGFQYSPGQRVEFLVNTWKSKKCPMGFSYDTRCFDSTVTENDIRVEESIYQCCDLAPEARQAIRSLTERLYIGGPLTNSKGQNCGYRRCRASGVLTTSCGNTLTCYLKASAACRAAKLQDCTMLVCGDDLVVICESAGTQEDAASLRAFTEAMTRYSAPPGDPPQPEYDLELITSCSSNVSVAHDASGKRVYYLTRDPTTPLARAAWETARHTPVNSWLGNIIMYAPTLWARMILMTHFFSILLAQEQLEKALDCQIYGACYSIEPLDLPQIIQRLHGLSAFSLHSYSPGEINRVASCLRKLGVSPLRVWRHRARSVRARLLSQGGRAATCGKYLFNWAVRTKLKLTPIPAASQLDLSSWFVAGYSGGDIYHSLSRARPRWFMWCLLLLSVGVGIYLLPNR

In data set [1], `O=C(O)c1ccc(Cl)cc1NS(=O)(=O)c1cc(Cl)c(Cl)cc1Cl` gave an IC50 of 11 µM.

`O=C(O)c1cc(Br)ccc1NS(=O)(=O)c1ccccc1` displayed an IC50 in data set [1] of 43 µM.

With `O=C(O)c1ccc(Oc2ccccc2)cc1NS(=O)(=O)c1ccc(Br)cc1F`, the IC50 in data set [1] was 0.31 µM.

In the case of `Cc1ccc(S(=O)(=O)Nc2ccc(Oc3ccccc3)cc2C(=O)O)cc1`, the thermodynamic solubility at 24 h in [2] is greater than 900 µg/mL. In addition, the IC50 in data set [3] was 3 µM; in [1], 0.086 µM; in data set [4], greater than 30 µM; in data set [5], greater than 30 µM; in [9], 170 nM; in data set [11] it was 1.8 µM. Also, the IC50 was greater than 30 µM in data set [12], greater than 100 µM in data set [13] and 1200 nM in data set [14]. In addition, the Ratio IC50 in [6] stood at 15. Further, the result in [7] was inactive. The same molecule showed a half-life at 10 µM in data set [8] of 11 min. Further, the Papp A→B in data set [10] was 2.2 ×10⁻⁶ cm/s.

Take `O=C(O)c1ccc(Oc2ccccc2)cc1NS(=O)(=O)c1ccc(Br)s1`: in [1], the concentration for half-maximal inhibition (IC50) was found to be 0.61 µM.

Turning to `Cc1cc(NS(=O)(=O)c2cc(Cl)c(Cl)cc2Cl)no1`, the IC50 in [1] came to 100 µM.

In [1], `O=C(O)c1cc(-c2ccccc2)ccc1NS(=O)(=O)c1ccc(Br)s1` showed a 50% inhibitory concentration (IC50) of 3.7 µM.

On to `O=C(O)c1cc(Br)ccc1NS(=O)(=O)c1ccc(Br)s1`, for which, in [1], the IC50 came to 6.1 µM.

The molecule `O=C(O)c1cc(Oc2ccccc2)ccc1NS(=O)(=O)c1ccc(Br)cc1F` came in with a thermodynamic solubility at 24 h in data set [2] greater than 900 µg/mL. The IC50 in data set [3] is 1.1 µM; in data set [1] it was 0.11 µM; in data set [4], greater than 30 µM; in data set [5] it was 1.1 µM; in [9] it was 200 nM; in data set [15], 93 nM. The IC50 is 52 nM in data set [16]; greater than 30 µM in data set [11]; 26 µM in data set [12]; greater than 100 µM in [13]; 1800 nM in [14]. In addition, the Ratio IC50 in data set [6] turned out to be 15. Besides, in data set [7], the outcome was inactive. For the same molecule, in [8], the half-life at 10 µM turned out to be 27 min. Moreover, the Papp A→B in data set [10] was less than 0.1 ×10⁻⁶ cm/s.

As to `O=C(O)c1ccccc1NS(=O)(=O)c1cc(Cl)c(Cl)cc1Cl`, the midpoint of inhibition in [1], the IC50, lay at 26 µM.

In data set [1], `O=C(O)c1ccc(Cl)cc1NS(=O)(=O)c1ccc(Br)s1` gave an IC50 of 4.6 µM.

The molecule `O=C(O)c1cc(Br)ccc1NS(=O)(=O)c1ccc(Cl)c(Cl)c1` yielded an IC50 in [1] of 8.4 µM.

In data set [1], `O=C(O)c1cc(Br)ccc1NS(=O)(=O)c1cc(F)c(Br)cc1F` had an IC50 of 4.5 µM.

Take `O=C(O)c1ccc(-c2ccccc2)cc1NS(=O)(=O)c1ccc(Br)s1`: the IC50 in data set [1] was 6.7 µM.

In [2], `Cc1ccc(S(=O)(=O)Nc2cc(Oc3ccccc3)ccc2C(=O)O)cc1` returned a solubility (thermodynamic) at 24 h greater than 700 µg/mL. For the same molecule, the IC50 in [3] is 3.1 µM; in data set [1] it was 0.072 µM; in data set [4], greater than 30 µM; in [5], 7.9 µM; in data set [9] it was 100 nM; in [15], 77 nM. For the same molecule, the IC50 is 52 nM in data set [16]; greater than 30 µM in data set [11]; greater than 30 µM in data set [12]; greater than 100 µM in data set [13]; 1200 nM in data set [14]. For the same molecule, the Ratio IC50 in [6] was 15. The outcome in data set [7] was inactive. The half-life at 10 µM in [8] was 17 min. The Papp A→B in data set [10] is 2.4 ×10⁻⁶ cm/s.

As for `O=C(O)c1cc(Oc2ccccc2)ccc1NS(=O)(=O)c1ccc(Br)s1`, the IC50 in data set [1] is 0.55 µM.

As for `O=C(O)c1ccc(Cl)cc1NS(=O)(=O)c1cc(F)c(Br)cc1F`, half-maximal inhibition in data set [1] (IC50) required 6.8 µM.

As to `O=C(O)c1cc(Br)ccc1NS(=O)(=O)c1cc(Cl)c(Cl)cc1Cl`, the IC50 in data set [1] worked out at 9 µM.
